Consider 63 molecules from patent publication US20200031778A1, “NOVEL 5-SUBSTITUTED IMIDAZOLYLMETHYL DERIVATIVES” (Bayer CropScience Aktiengesellschaft, priority 2016, published 2020).

A short description of one data set: Log P by HPLC on reversed phase columns (EEC directive 79/831 Annex V.A8; methods [a], [b], [c]). It is filed as physicochemical.
Conditions: not given
The essentials:
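Reversed-phase HPLC with LC-UV detection, 10→95% acetonitrile linear gradient; aqueous eluent 0.1% formic acid [a], 0.001 M ammonium acetate, neutral [b], or 0.1% phosphoric acid [c]. Calibrated against C3–C16 alkan-2-ones of known Log P by retention-time linear interpolation; multiple values within a method separated by "+".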
For the molecule `OC(Cn1cncc1C(F)(F)F)c1ccc(Oc2ccc(Cl)cc2)cc1Cl` (stereo not drawn) [I-39], the LogP is 3.80^[a].

`CC(C)CC(O)(Cn1cncc1C#N)c1ccc(Cl)cc1Cl` (stereo not drawn) [I-303]: the LogP was 3.39^[a].

As for `N#Cc1cncn1CC(O)(c1cc(Cl)c(Cl)cc1Cl)C1(Cl)CC1` (stereo not drawn) [I-562], the LogP was 2.98^[a].

Consider `N#Cc1cncn1CC(O)(c1cc(F)c(F)c(Cl)c1)C1(F)CC1` (stereo not drawn) [I-476], for which the LogP was 2.54^[a].

For the molecule `C[Si](C)(C#CC(O)(Cn1cncc1C#N)C1(F)CC1)c1ccccc1` (stereo not drawn) [I-595], the LogP was 3.04^[a].

Consider `OC(Cn1cncc1Cl)c1ccc(Oc2ccc(Br)cn2)cc1Cl` (stereo not drawn) [I-79], for which the LogP was 2.10^[a].

Take `N#Cc1cncn1CC(O)c1ccccc1F` (stereo not drawn) [I-139]: the LogP is 1.31^[a].

As to `CC1(C(O)(Cn2cncc2C#N)c2ccc(Cl)cc2F)CC1` (stereo not drawn) [I-441], the LogP is 2.68^[a].

With `CC(O)(Cn1cncc1F)c1cnc(Oc2ccc(OC(F)(F)F)cc2)cc1C(F)(F)F` (stereo not drawn) [I-241], the LogP was 2.51^[a].

Consider `N#Cc1cncn1CC(O)(C#Cc1ccccc1Cl)C1(Cl)CC1` (stereo not drawn) [I-324], for which the LogP is 2.73^[a].

Consider `CC(C)(C)CC(O)(Cn1cncc1C#N)c1ccc(OC(F)(F)F)cc1` (stereo not drawn) [I-275], for which the LogP was 3.50^[a].

With `N#Cc1cncn1CC(O)(c1ccc(Cl)cc1Br)C1CC1` (stereo not drawn) [I-405], the LogP was 2.80^[a].

In the case of `COc1ccc(Oc2ccc(C(O)Cn3cncc3Cl)c(Cl)n2)c(Cl)c1` (stereo not drawn) [I-16], the LogP is 2.23^[a].

On to `CC(O)(Cn1cncc1F)c1cnc(Oc2ccc(C(F)F)cc2)cc1C(F)(F)F` (stereo not drawn) [I-230], for which the LogP was 2.17^[a].

`CCCC(O)(Cn1cncc1C#N)c1ccc(Cl)cc1Cl` (stereo not drawn) [I-292]: the LogP was 3.14^[a].

`CC(O)(Cn1cncc1C#N)c1cnc(Oc2ccc(C(F)(F)F)cc2)cc1Br` (stereo not drawn) [I-253]: the LogP is 3.27^[a].

For the molecule `C[Si](C)(C)CC(O)(Cn1cncc1C#N)c1ccc(C(F)(F)F)cc1` (stereo not drawn) [I-269], the LogP is 3.55^[a].

`N#Cc1cncn1CC(O)(c1ccc(F)c(F)c1F)C1(F)CC1` (stereo not drawn) [I-634]: the LogP is 2.18^[a].

With `N#Cc1cncn1CC(O)c1ccc(C(F)(F)F)cc1` (stereo not drawn) [I-141], the LogP is 1.90^[a].

In the case of `N#Cc1cncn1CC(O)(c1c(F)ccc(Cl)c1F)C1(F)CC1` (stereo not drawn) [I-587], the LogP is 2.28^[a].

For the molecule `N#Cc1cncn1CC(O)(CC1CC1)c1ccc(Cl)cc1C(F)(F)F` (stereo not drawn) [I-460], the LogP is 3.10^[a].

For `CCC(C)C(O)(Cn1cncc1C#N)c1ccc(Cl)cc1Cl` (stereo not drawn) [I-314], the LogP is 3.29^[a].

On to `OC(Cn1cncc1Cl)c1ccc(Oc2ccc(Cl)cc2)cc1C(F)F` (stereo not drawn) [I-71], for which the LogP is 2.45^[a].

As to `OC(Cn1cncc1F)(c1ccc(Br)cc1Cl)C1(F)CC1` (stereo not drawn) [I-430], the LogP is 1.76^[a].

As for `N#Cc1cncn1CC(O)(C#CC1CC1)C1(Cl)CC1` (stereo not drawn) [I-692], the LogP is 2.11^[a].

As for `N#Cc1cncn1CC(O)(c1c(F)cc(F)cc1Cl)C1(Cl)CC1` (stereo not drawn) [I-563], the LogP was 2.45^[a].

Consider `CC(C)(C)C(O)(C#CCC1CCCCC1)Cn1cncc1C#N` (stereo not drawn) [I-541], for which the LogP is 3.72^[a].

In the case of `CC(O)(Cn1cncc1Cl)c1ccc(Oc2ccc(Br)cn2)cc1Cl` (stereo not drawn) [I-204], the LogP was 2.32^[a].

As for `N#Cc1cncn1CC(O)(C#CC1CCc2ccccc21)C1(Cl)CC1` (stereo not drawn) [I-602], the LogP is 2.92^[a].

Regarding `N#Cc1cncn1CC(O)c1ccc(Oc2ccc(I)cc2)cc1Br` (stereo not drawn) [I-110], the LogP was 3.48^[a].

On to `N#Cc1cncn1CC(O)(C#Cc1ccccc1)C1(F)CC1` (stereo not drawn) [I-371], for which the LogP is 2.20^[a].

For the molecule `N#Cc1cncn1CC(O)(c1cc(F)c(Cl)cc1Br)C1(F)CC1` (stereo not drawn) [I-525], the LogP is 2.65^[a].

Consider `O=C(Cn1cncc1F)c1ccc(Oc2ccc(Cl)cc2)nc1C(F)(F)F` [IX-106], for which the LogP was 2.59^[a].

As to `OC(Cn1cncc1Cl)c1ccc(Oc2ccc(Br)cc2)cc1C(F)(F)F` (stereo not drawn) [I-20], the LogP is 2.96^[a].

Take `CC(O)(Cn1cncc1Cl)c1ccc(Oc2ccc(I)cc2)cc1Cl` (stereo not drawn) [I-166]: the LogP was 3.04^[a].

With `N#Cc1cncn1CC(O)(CC1CC1)c1cccc(F)c1F` (stereo not drawn) [I-517], the LogP is 2.20^[a].

Turning to `CC(C)C(O)(Cn1cncc1C#N)C1(F)CC1` (stereo not drawn) [I-380], the LogP was 1.78^[a].

Take `C=CC(C)C(O)(Cn1cncc1C#N)C1(F)CC1` (stereo not drawn) [I-375]: the LogP was 1.94^[a].

For the molecule `CC(C)(C)C#Cc1ccc(C(O)(Cn2cncc2C#N)C2(Cl)CC2)c(F)c1` (stereo not drawn) [I-653], the LogP was 3.79^[a].

For the molecule `Cc1ccc(C)c(C#CC(O)(Cn2cncc2C#N)C2(Cl)CC2)c1` (stereo not drawn) [I-298], the LogP was 3.09^[a].

As for `C[Si](C)(C)CC(O)(Cn1cncc1C#N)c1ccc(F)cc1` (stereo not drawn) [I-227], the LogP was 3.05^[a].

For the molecule `CC(O)(Cn1cncc1Br)c1ccc(Oc2ccc(I)cc2)cc1Cl` (stereo not drawn) [I-172], the LogP is 3.17^[a].

For `CC(C)(C)C#Cc1ccc(C(O)(Cn2cncc2C#N)C2(Cl)CC2)c(Cl)c1` (stereo not drawn) [I-657], the LogP is 3.99^[a].

For the molecule `N#Cc1cncn1CC(O)(CC1CC1)c1ccc(Br)cc1Br` (stereo not drawn) [I-429], the LogP is 2.82^[a].

Take `CC(C)(C)C(O)(Cn1cncc1C#N)c1ccc(F)cc1` (stereo not drawn) [I-347]: the LogP was 2.51^[a].

For the molecule `N#Cc1cncn1CC(O)(c1cc(F)ccc1F)C1(F)CC1` (stereo not drawn) [I-523], the LogP was 2.02^[a].

For the molecule `CCCC#Cc1ccc(C(O)(Cn2cncc2C#N)C2(Cl)CC2)c(Cl)c1` (stereo not drawn) [I-655], the LogP was 3.65^[a].

Consider `OC(Cn1cncc1F)c1ccc(Oc2ccc(Cl)cc2)cc1Cl` (stereo not drawn) [I-46], for which the LogP was 2.28^[a].

As for `N#Cc1cncn1CC(O)(c1ccc(C2CC2)cc1Cl)C1(F)CC1` (stereo not drawn) [I-392], the LogP is 2.74^[a].

Take `N#Cc1cncn1CC(O)(c1ccc(C#CC2CCCC2)cc1Cl)C1(F)CC1` (stereo not drawn) [I-640]: the LogP is 4.01^[a].

Consider `N#Cc1cncn1CC(O)(c1ccc(Cl)c(Cl)c1F)C1(F)CC1` (stereo not drawn) [I-638], for which the LogP is 2.58^[a].

Regarding `N#Cc1cncn1CC(O)c1ccc(F)cc1` (stereo not drawn) [I-117], the LogP is 1.37^[a].

Regarding `CC(C)(C)CC(C)(O)Cn1cncc1C#N` (stereo not drawn) [I-239], the LogP is 1.92^[a].

`N#Cc1cncn1CC(O)(c1cc(Br)c(F)cc1F)C1(Cl)CC1` (stereo not drawn) [I-582]: the LogP is 2.66^[a].

In the case of `N#Cc1cncn1CC(O)(CC1CC1)c1ccc(F)c(Cl)c1` (stereo not drawn) [I-485], the LogP is 2.52^[a].

Turning to `N#Cc1cncn1CC(O)(c1cc(Cl)c(Cl)cc1F)C1(F)CC1` (stereo not drawn) [I-589], the LogP was 2.68^[a].

For `N#Cc1cncn1CC(O)(c1cc(Cl)cc(F)c1F)C1(F)CC1` (stereo not drawn) [I-570], the LogP was 2.44^[a].

Take `CC(O)(Cn1cncc1Cl)c1cnc(Oc2ccc(Cl)cc2)cc1Cl` (stereo not drawn) [I-162]: the LogP was 2.41^[a].

On to `N#Cc1cncn1CC(O)(c1cc(F)cc(F)c1Cl)C1(Cl)CC1` (stereo not drawn) [I-619], for which the LogP is 2.33^[a].

On to `N#Cc1cncn1CC(O)(c1c(F)ccc(F)c1F)C1(Cl)CC1` (stereo not drawn) [I-615], for which the LogP was 2.23^[a].

The same data set, now with this note: reversed phase HPLC column; method [a]: LC-UV, acidic range, 0.1% formic acid in water and acetonitrile as eluent (linear gradient from 10% to 95% acetonitrile).
The term chromatographic logP denotes a lipophilicity value derived from retention on a column. Regarding `CC(=O)c1cncn1CC(=O)c1ccc(Oc2ccc(Cl)cc2)nc1C(F)(F)F` [IX-119], the chromatographic logP worked out at 3.13.

In turn, `N#Cc1cncn1CC(=O)c1ccc(Cl)cc1F` [IX-147] displayed a chromatographic logP of 1.94.

Consider `N#Cc1cncn1CC(=O)c1ccc(Cl)s1` [IX-125], for which the chromatographic logP worked out at 1.88.
